# Species on record: Rattus norvegicus
# Assay: Open TG-GATES - Regimen: Single
# Type: toxicity, organism-based, Sprague-Dawley
# Set-up: regimen Single, gender Male, age 6 weeks
# Conditions: in vivo, po, route gavage; for APTT / Bas / Eos / Fbg / Ht / Lym / MCH / MCHC / MCV / Mono / Neu / PT / Plat / RBC / Ret / WBC: tissue Blood; for KIDNEY_L / KIDNEY_R / KIDNEY_TOTAL: tissue Kidney; for LIVER: tissue Liver; for ALP / ALT / AST / BUN / CRE / Ca / Cl / DBIL / GLC / IP / K / LDH / Na / PL / RALB / TBIL / TC / TG / TP / gamma-GTP: tissue Plasma
# [1] = 30 mg/kg, 3 h, dose level Middle
# [2] = 30 mg/kg, 6 h, dose level Middle
# [3] = 30 mg/kg, 9 h, dose level Middle
# [4] = 30 mg/kg, 24 h, dose level Middle
# [5] = 100 mg/kg, 3 h, dose level High
# [6] = 100 mg/kg, 6 h, dose level High
# [7] = 100 mg/kg, 9 h, dose level High
# [8] = 100 mg/kg, 24 h, dose level High
compound,measurement,setting,value
Cc1cccc(Nc2cc(Cl)nc(SCC(=O)O)n2)c1C [PIRINIXIC ACID],TERMINAL_BW,[1],204.3 g
same,APTT,[1],17.1 s
same,Bas,[1],0%
same,Eos,[1],0.4%
same,Fbg,[1],275 mg/dL
same,Ht,[1],39.7%
same,Lym,[1],77.6%
same,MCH,[1],21.5 pg
same,MCHC,[1],34.3%
same,MCV,[1],62.6 fL
same,Mono,[1],3%
same,Neu,[1],18%
same,PT,[1],12.5 s
same,Plat,[1],130.4 x10_4/uL
same,RBC,[1],634 x10_4/ul
same,Ret,[1],7.9%
same,WBC,[1],74.5 x10_2/uL
same,KIDNEY_L,[1],0.9 g
same,KIDNEY_R,[1],0.9 g
same,KIDNEY_TOTAL,[1],1.8 g
same,LIVER,[1],8.9 g
same,ALP,[1],1689.8 IU/L
same,ALT,[1],49.2 IU/L
same,AST,[1],74 IU/L
same,BUN,[1],9 mg/dL
same,CRE,[1],0.1 mg/dL
same,Ca,[1],11 mg/dL
same,Cl,[1],103.8 meq/L
same,DBIL,[1],0.088 mg/dL
same,GLC,[1],184.2 mg/dL
same,IP,[1],10.1 mg/dL
same,K,[1],3.9 meq/L
same,LDH,[1],65.6 IU/L
same,Na,[1],139.8 meq/L
same,PL,[1],172.4 mg/dL
same,RALB,[1],2.7 g/dL
same,TBIL,[1],0.052 mg/dL
same,TC,[1],79 mg/dL
same,TG,[1],251.8 mg/dL
same,TP,[1],5.8 g/dL
same,gamma-GTP,[1],1 IU/L
same,TERMINAL_BW,[2],205.1 g
same,APTT,[2],16.2 s
same,Bas,[2],0%
same,Eos,[2],1%
same,Fbg,[2],274.6 mg/dL
same,Ht,[2],40.3%
same,Lym,[2],70.8%
same,MCH,[2],20.8 pg
same,MCHC,[2],34.1%
same,MCV,[2],61 fL
same,Mono,[2],2.4%
same,Neu,[2],25.4%
same,PT,[2],12.4 s
same,Plat,[2],117.5 x10_4/uL
same,RBC,[2],661.2 x10_4/ul
same,Ret,[2],7.5%
same,WBC,[2],71.7 x10_2/uL
same,KIDNEY_L,[2],0.9 g
same,KIDNEY_R,[2],0.9 g
same,KIDNEY_TOTAL,[2],1.7 g
same,LIVER,[2],8.2 g
same,ALP,[2],1624.2 IU/L
same,ALT,[2],46.6 IU/L
same,AST,[2],77.8 IU/L
same,BUN,[2],8.8 mg/dL
same,CRE,[2],0.2 mg/dL
same,Ca,[2],10.7 mg/dL
same,Cl,[2],105.4 meq/L
same,DBIL,[2],0.036 mg/dL
same,GLC,[2],177.8 mg/dL
same,IP,[2],10.7 mg/dL
same,K,[2],4.3 meq/L
same,LDH,[2],59.8 IU/L
same,Na,[2],139.6 meq/L
same,PL,[2],149.4 mg/dL
same,RALB,[2],2.6 g/dL
same,TBIL,[2],0.046 mg/dL
same,TC,[2],76.4 mg/dL
same,TG,[2],115.4 mg/dL
same,TP,[2],5.4 g/dL
same,gamma-GTP,[2],1.4 IU/L
same,TERMINAL_BW,[3],204.7 g
same,APTT,[3],15.6 s
same,Bas,[3],0%
same,Eos,[3],0.6%
same,Fbg,[3],267.4 mg/dL
same,Ht,[3],38.8%
same,Lym,[3],78.8%
same,MCH,[3],21.1 pg
same,MCHC,[3],34.3%
same,MCV,[3],61.4 fL
same,Mono,[3],2%
same,Neu,[3],18%
same,PT,[3],12.3 s
same,Plat,[3],121.4 x10_4/uL
same,RBC,[3],631.6 x10_4/ul
same,Ret,[3],7.8%
same,WBC,[3],66.7 x10_2/uL
same,KIDNEY_L,[3],0.9 g
same,KIDNEY_R,[3],0.8 g
same,KIDNEY_TOTAL,[3],1.7 g
same,LIVER,[3],7.9 g
same,ALP,[3],1566.2 IU/L
same,ALT,[3],35.8 IU/L
same,AST,[3],65.8 IU/L
same,BUN,[3],9.6 mg/dL
same,CRE,[3],0.2 mg/dL
same,Ca,[3],10.5 mg/dL
same,Cl,[3],104.2 meq/L
same,DBIL,[3],0.026 mg/dL
same,GLC,[3],185.8 mg/dL
same,IP,[3],11.1 mg/dL
same,K,[3],3.9 meq/L
same,LDH,[3],61.6 IU/L
same,Na,[3],140.6 meq/L
same,PL,[3],122.8 mg/dL
same,RALB,[3],2.6 g/dL
same,TBIL,[3],0.038 mg/dL
same,TC,[3],67.8 mg/dL
same,TG,[3],68.8 mg/dL
same,TP,[3],5.3 g/dL
same,gamma-GTP,[3],1.4 IU/L
same,TERMINAL_BW,[4],211.1 g
same,APTT,[4],16.1 s
same,Bas,[4],0%
same,Eos,[4],1.2%
same,Fbg,[4],216.4 mg/dL
same,Ht,[4],39.1%
same,Lym,[4],76.2%
same,MCH,[4],21.4 pg
same,MCHC,[4],34.5%
same,MCV,[4],61.9 fL
same,Mono,[4],3%
same,Neu,[4],19.6%
same,PT,[4],13 s
same,Plat,[4],110.1 x10_4/uL
same,RBC,[4],632.4 x10_4/ul
same,Ret,[4],6.8%
same,WBC,[4],75.4 x10_2/uL
same,KIDNEY_L,[4],0.9 g
same,KIDNEY_R,[4],0.9 g
same,KIDNEY_TOTAL,[4],1.8 g
same,LIVER,[4],10.2 g
same,ALP,[4],1775.4 IU/L
same,ALT,[4],51.8 IU/L
same,AST,[4],73.4 IU/L
same,BUN,[4],14.4 mg/dL
same,CRE,[4],0.2 mg/dL
same,Ca,[4],10.7 mg/dL
same,Cl,[4],104 meq/L
same,DBIL,[4],0.018 mg/dL
same,GLC,[4],189.6 mg/dL
same,IP,[4],8.6 mg/dL
same,K,[4],4 meq/L
same,LDH,[4],58 IU/L
same,Na,[4],141.6 meq/L
same,PL,[4],111.4 mg/dL
same,RALB,[4],2.6 g/dL
same,TBIL,[4],0.03 mg/dL
same,TC,[4],59.2 mg/dL
same,TG,[4],37.6 mg/dL
same,TP,[4],5.3 g/dL
same,gamma-GTP,[4],1.2 IU/L
same,TERMINAL_BW,[5],203.1 g
same,APTT,[5],16 s
same,Bas,[5],0%
same,Eos,[5],0.8%
same,Fbg,[5],246.6 mg/dL
same,Ht,[5],38.5%
same,Lym,[5],76.8%
same,MCH,[5],21.8 pg
same,MCHC,[5],34.4%
same,MCV,[5],63.3 fL
same,Mono,[5],3%
same,Neu,[5],18.2%
same,PT,[5],12.6 s
same,Plat,[5],113.6 x10_4/uL
same,RBC,[5],607.8 x10_4/ul
same,Ret,[5],7.7%
same,WBC,[5],82.7 x10_2/uL
same,KIDNEY_L,[5],0.9 g
same,KIDNEY_R,[5],0.8 g
same,KIDNEY_TOTAL,[5],1.7 g
same,LIVER,[5],8.8 g
same,ALP,[5],1788.2 IU/L
same,ALT,[5],54.6 IU/L
same,AST,[5],82.6 IU/L
same,BUN,[5],11 mg/dL
same,CRE,[5],0.2 mg/dL
same,Ca,[5],11 mg/dL
same,Cl,[5],102.2 meq/L
same,DBIL,[5],0.046 mg/dL
same,GLC,[5],179.8 mg/dL
same,IP,[5],10.4 mg/dL
same,K,[5],4 meq/L
same,LDH,[5],69.8 IU/L
same,Na,[5],139.2 meq/L
same,PL,[5],156.6 mg/dL
same,RALB,[5],2.5 g/dL
same,TBIL,[5],0.058 mg/dL
same,TC,[5],80.8 mg/dL
same,TG,[5],120.2 mg/dL
same,TP,[5],5.4 g/dL
same,gamma-GTP,[5],1 IU/L
same,TERMINAL_BW,[6],202.6 g
same,APTT,[6],16 s
same,Bas,[6],0%
same,Eos,[6],0.6%
same,Fbg,[6],267.4 mg/dL
same,Ht,[6],39.4%
same,Lym,[6],74%
same,MCH,[6],21.5 pg
same,MCHC,[6],34.3%
same,MCV,[6],62.6 fL
same,Mono,[6],2.4%
same,Neu,[6],22.2%
same,PT,[6],12.1 s
same,Plat,[6],116.2 x10_4/uL
same,RBC,[6],628.6 x10_4/ul
same,Ret,[6],7.5%
same,WBC,[6],72.4 x10_2/uL
same,KIDNEY_L,[6],0.9 g
same,KIDNEY_R,[6],0.9 g
same,KIDNEY_TOTAL,[6],1.7 g
same,LIVER,[6],7.8 g
same,ALP,[6],1738.4 IU/L
same,ALT,[6],52 IU/L
same,AST,[6],81.4 IU/L
same,BUN,[6],9.4 mg/dL
same,CRE,[6],0.2 mg/dL
same,Ca,[6],10.6 mg/dL
same,Cl,[6],104.6 meq/L
same,DBIL,[6],0.036 mg/dL
same,GLC,[6],178.6 mg/dL
same,IP,[6],10.9 mg/dL
same,K,[6],4.3 meq/L
same,LDH,[6],54.6 IU/L
same,Na,[6],139.4 meq/L
same,PL,[6],152.4 mg/dL
same,RALB,[6],2.5 g/dL
same,TBIL,[6],0.052 mg/dL
same,TC,[6],80.4 mg/dL
same,TG,[6],105.4 mg/dL
same,TP,[6],5.3 g/dL
same,gamma-GTP,[6],1.6 IU/L
same,TERMINAL_BW,[7],203.7 g
same,APTT,[7],16.5 s
same,Bas,[7],0%
same,Eos,[7],0.4%
same,Fbg,[7],248 mg/dL
same,Ht,[7],40%
same,Lym,[7],79.6%
same,MCH,[7],21.8 pg
same,MCHC,[7],34.3%
same,MCV,[7],63.6 fL
same,Mono,[7],1.8%
same,Neu,[7],17.8%
same,PT,[7],12.4 s
same,Plat,[7],109.8 x10_4/uL
same,RBC,[7],628.8 x10_4/ul
same,Ret,[7],8.1%
same,WBC,[7],76 x10_2/uL
same,KIDNEY_L,[7],0.9 g
same,KIDNEY_R,[7],0.9 g
same,KIDNEY_TOTAL,[7],1.8 g
same,LIVER,[7],7.8 g
same,ALP,[7],2137.8 IU/L
same,ALT,[7],46 IU/L
same,AST,[7],74.2 IU/L
same,BUN,[7],9.6 mg/dL
same,CRE,[7],0.2 mg/dL
same,Ca,[7],10.5 mg/dL
same,Cl,[7],104.4 meq/L
same,DBIL,[7],0.028 mg/dL
same,GLC,[7],192 mg/dL
same,IP,[7],11 mg/dL
same,K,[7],4 meq/L
same,LDH,[7],58.8 IU/L
same,Na,[7],140.8 meq/L
same,PL,[7],115.2 mg/dL
same,RALB,[7],2.6 g/dL
same,TBIL,[7],0.04 mg/dL
same,TC,[7],59.4 mg/dL
same,TG,[7],85.2 mg/dL
same,TP,[7],5.4 g/dL
same,gamma-GTP,[7],1.2 IU/L
same,TERMINAL_BW,[8],210.5 g
same,APTT,[8],16.2 s
same,Bas,[8],0%
same,Eos,[8],1%
same,Fbg,[8],206.8 mg/dL
same,Ht,[8],38.4%
same,Lym,[8],76%
same,MCH,[8],21.8 pg
same,MCHC,[8],34.5%
same,MCV,[8],63.3 fL
same,Mono,[8],2.6%
same,Neu,[8],20.2%
same,PT,[8],13.1 s
same,Plat,[8],109.5 x10_4/uL
same,RBC,[8],607 x10_4/ul
same,Ret,[8],7.2%
same,WBC,[8],74.1 x10_2/uL
same,KIDNEY_L,[8],0.9 g
same,KIDNEY_R,[8],1 g
same,KIDNEY_TOTAL,[8],1.9 g
same,LIVER,[8],10.5 g
same,ALP,[8],1720.8 IU/L
same,ALT,[8],53.4 IU/L
same,AST,[8],77.4 IU/L
same,BUN,[8],14.2 mg/dL
same,CRE,[8],0.2 mg/dL
same,Ca,[8],10.7 mg/dL
same,Cl,[8],104.2 meq/L
same,DBIL,[8],0.018 mg/dL
same,GLC,[8],195.4 mg/dL
same,IP,[8],8.6 mg/dL
same,K,[8],4 meq/L
same,LDH,[8],60.4 IU/L
same,Na,[8],142.2 meq/L
same,PL,[8],96.4 mg/dL
same,RALB,[8],2.6 g/dL
same,TBIL,[8],0.026 mg/dL
same,TC,[8],50.2 mg/dL
same,TG,[8],31.4 mg/dL
same,TP,[8],5.2 g/dL
same,gamma-GTP,[8],1.2 IU/L

# Source: ChEMBL document CHEMBL3885861, “Open TG-GATES”
